Data published in paper PMC6324813, “Biological evaluation of isoflavonoids from Genista halacsyi using estrogen-target cells: Activities of glucosides compared to aglycones” (PLoS ONE, 2019).

What was measured:
[1] = test system: TNFα mRNA; experiment: LPS-induced TNFα mRNA expression in RAW 264.7 cells (RT-qPCR); format: cell-based, mouse
Procedure: To assess TNFα mRNA expression, RAW 264.7 cells were plated in 6-well plates in alpha-MEM medium supplemented with 10% DCC-FBS, at a density of 300,000 cells per well, maintained in culture for 72 h and then exposed to vehicle (0.3% DMSO) or 3 μΜ test compound for 20 min or 24 h prior to stimulation with 100 ng/ml lipopolysaccharide (Sigma L4391) for 1 h. Extraction of total RNA, reverse transcription (RT) and quantitative PCR (qPCR) analysis of mRNA expression levels were performed as previously described. Relative gene expression levels were calculated by the comparative Ct method using the formula 2^(-ΔCt). Tumor necrosis factor alpha (TNFα) mRNA levels were normalized to the respective levels of […] (GAPDH). Test compound effects on the relative number of viable cells were assessed using crystal violet and a Safire II microplate reader (Tecan) as previously described. […] The following primers were used: […]

[2] = test system: MCF-7 cells; experiment: MCF-7 cell proliferation (MTT); format: cell-based, human; conditions: for activation at 1 µM: Homo sapiens, MCF7, 72 h, read-out: Induction of cell proliferation (MCF-7 cells) Agonism at 1μΜ (% of 0.1nM E2)
Procedure: Test compound effects on the proliferation of MCF-7 and MDA-MB-231 cells were assessed as previously described.

[3] = test system: TNFα mRNA; conditions: cited from earlier work
[4] = test system: HT22 cells; experiment: Glutamate toxicity (oxytosis) of HT22 neuronal cells (MTT); conditions: for viability of HT22 cells under normal growth conditions compared to vehicle-treated cells: no glutamate
Procedure: Glutamate-challenged HT22 cells suffer oxidative stress-induced cell death (oxytosis) within 24 h due to glutathione depletion and consequent massive accumulation of ROS [42]. The efficacy of test compounds to prevent oxytosis of HT22 cells was assessed as already described. Briefly, HT22 cells were plated in 96-well flat bottom plates at a density of 4,000 cells per well in 100 μl of DMEM (low glucose) containing 2% FBS. 24 h after plating, the cells were treated with test compounds or compound diluent (0.1% DMSO) and then challenged with 5 mM glutamate for 24 h. […] Non-challenged cells served to assess test compound effects on cell viability, whereas challenged cells served to assess the neuroprotective activity of test compounds.

[5] = test system: RAW 264.7 cells; experiment: Differentiation of RAW 264.7 cells to osteoclasts, TRAP activity; format: cell-based, mouse; conditions: RANKL 50 ng/ml + E2 1 nM or compound 1 μM; 3 days; DF plus vehicle = 100
Procedure: Clones of RAW 264.7 cells competent to differentiate to multinuclear osteoclasts upon activation with RANKL provide valuable information on the regulation of osteoclast differentiation. Differentiation-competent RAW cells (ATCC TIB-71) were seeded in 96-well plates at a density of 9,600 cells per well. The cells were plated in the presence of test compounds or compound diluent (0.1% DMSO) and, 4 h after plating, were exposed for 3 days to 50 ng/ml RANKL or to plain medium. Osteoclastic differentiation was assessed via induction of Tartrate-Resistant Acid Phosphatase (TRAP) activity. The cells were washed with PBS and incubated with 25μl lysis buffer (0.4 M NaCl, 25 mM Hepes pH 7.7, 1.5 mM MgCl2, 0.2 mM EDTA, 1% NP40) for 5 min on ice.

[6] = test system: RAW 264.7 cells; conditions: cited from earlier work
[7] = test system: Ishikawa cells; experiment: Induction of AlkP expression in Ishikawa cells; format: cell-based, human; conditions: for EC (25% of 0.1 nM E2 effect) / activation at 1 µM: 72 h; for EC (25% of 0.1 nM E2 effect): concentration required to achieve 25% of the effect of 0.1 nM E2, read-out: Induction of Alkaline Phosphatase Expression (Ishikawa cells) EC25E2; for activation at 1 µM: read-out: Induction of AlkP expression (Ishikawa cells) Agonism at 1μΜ (% of 0.1nM E2)
Procedure: Induction of AlkP expression of Ishikawa cells is considered as a reliable in vitro measure of estrogenic activity. Assessment of AlkP expression in Ishikawa cells was carried as already described. Briefly, the cells were plated in 96-well plates at a density of 12,000 cells per well in phenol-red-free MEM supplemented with 1 μg/mL insulin and 5% DCC-FBS. […] Data on the dependence of AlkP activity on isoflavonoid concentration were curve fitted using SigmaPlot10 (SPSS Inc) and the numerical data of curve fitting were used to determine AUC as described above, using for the calculation of AUC of a particular AlkP response the very same concentration used for the respective luciferase response. The AUC of AlkP responses of the isoflavonoids of a group were expressed as % of the AUC of the luciferase response of the respective archetypal isoflavone.

[8] = test system: HT22 cells; conditions: cited from earlier work; for prevention of oxytosis of glutamate-challenged HT22 cells: 1 μM estradiol or 2.5 μM genistein
[9] = target: ERβ (Homo sapiens, UniProt Q92731); experiment: ERE-dependent luciferase gene transcription in HEK:ERβ cells; format: cell-based; parameters: expressed in transfected cells; host or cells: HEK-293 (HEK:ERβ clone, with pERE-tk-Luciferase); conditions: compounds 1 μM, estradiol 0.1 nM; 18 h
Procedure: Assessment of ER/ERE-dependent luciferase gene transcription in MCF-7:D5L (express ERα) and HEK:ERβ cells (express ERβ) and determination of ER transcriptional agonism was carried as already described. Briefly, the cells were plated in 96-well plates at a density of 12,000 cells per well in phenol-red-free MEM (MCF-7:D5L cells) or phenol-red-free DMEM (HEK:ERβ cells) supplemented with 1 μg/mL insulin and 5% DCC-FBS. […] The AUC of the isoflavonoids of each group were then expressed as % of the AUC of the respective archetypal isoflavone. Since AUC data combine the efficacy as well as the potency of cell response into a single parameter, the %AUC data were considered here as a more reliable measure of relative ER/ERE-dependent luciferase expression of the test compounds.

[10] = test system: MC3T3-E1 cells; experiment: Mineralization of MC3T3-E1 cells, Alizarin red staining; format: cell-based, mouse; conditions: DF + E2 1 nM or compound 1 μM; 21 days; DF plus vehicle = 100
Procedure: (§1) Differentiation of MC3T3-E1 cells to osteoblasts has been extensively used to screen for compounds that may promote bone formation. Differentiation of MC3T3-E1 cells was carried out in 96-well plates using 3,300 cells per well and was assessed via induction of, i) Alkaline Phosphatase (AlkP) activity after 6 days of treatment and, ii) mineralization of extracellular matrix after 21 days of treatment. Briefly, 24 h after plating, the cells were incubated with test compounds or vehicle i.e. the compound diluent (0.1% DMSO) and then exposed for 6 days to differentiation medium in presence or absence of differentiation factors (cf. Cell culture) with a change to fresh compounds and medium in 3 days. AlkP activity was assessed at 405 nm in a Safire II microplate reader using as substrate p-nitrophenyl-phosphate (pNPP, Sigma-Aldrich) as already described. Mineralization of MC3T3 cells was assessed by staining with Alizarin red (Fluka). Cells were cultured and treated as described above for 21 days, with media and test compounds changed every 3 days, and calcium phosphate deposition was assayed as described by Gregory et al.. Briefly, the cells were washed twice with PBS and fixed with 70% ethanol for 15 min on ice. The cells were stained with Alizarin red solution (40 mM, pH 4.2) for 30 min at room temperature, washed twice with distilled water and once with PBS. The dye from the stained mineral deposits was extracted with 33% acetic acid and the absorbance was measured at 405 nm using a Safire II microplate reader (Tecan).

[11] = test system: MC3T3-E1 cells; experiment: Differentiation of MC3T3-E1 cells to osteoblasts, AlkP activity; format: cell-based, mouse; conditions: DF + E2 1 nM or compound 1 μM; 6 days; DF plus vehicle = 100
Procedure: as §1, with “Differentiation” for “Differentiation of MC3T3-E1 cells to osteoblasts has been extensively used to screen for compounds that may promote bone formation. Differentiation”

[12] = test system: MDA-MB-231 cells; experiment: MDA-MB-231 cell proliferation (MTT); format: cell-based; conditions: 0.1 nM estradiol, 1 μM ICI182,780, isoflavonoids 1 μM
Procedure: Test compound effects on the proliferation of MCF-7 and MDA-MB-231 cells were assessed as previously described. […] Relative numbers of cells exposed to estradiol or to ICI182,780 acted as positive and negative control, respectively.

[13] = 1 nM estradiol or 1 μM compound
[14] = 1 μM ICI182,780, isoflavonoids 1 μM

ERβ, sequence (Q92731 whole entry): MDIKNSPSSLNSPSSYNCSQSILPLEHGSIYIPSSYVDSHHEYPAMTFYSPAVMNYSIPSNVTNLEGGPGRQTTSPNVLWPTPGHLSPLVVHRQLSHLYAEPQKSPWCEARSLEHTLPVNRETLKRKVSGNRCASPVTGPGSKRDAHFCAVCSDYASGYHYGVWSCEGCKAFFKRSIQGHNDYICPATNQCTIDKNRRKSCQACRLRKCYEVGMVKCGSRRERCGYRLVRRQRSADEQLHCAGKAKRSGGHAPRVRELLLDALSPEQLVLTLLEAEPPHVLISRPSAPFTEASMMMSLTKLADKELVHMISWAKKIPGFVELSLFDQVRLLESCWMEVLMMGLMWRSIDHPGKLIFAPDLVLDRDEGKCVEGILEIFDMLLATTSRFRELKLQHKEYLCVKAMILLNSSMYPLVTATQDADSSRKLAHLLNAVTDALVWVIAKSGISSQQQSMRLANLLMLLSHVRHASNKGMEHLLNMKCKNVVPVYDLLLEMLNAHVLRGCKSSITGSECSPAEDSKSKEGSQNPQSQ

Row | SMILES | activation at 1 µM [2] [%] | viability of HT22 cells under normal growth conditions compared to vehicle-treated cells [4, 13] | Differentiation of RAW 267.4 cells, TRAP expression (%) [5] [%] | concentrations that inhibit osteoclastic differentiation of RAW 264.7 cells [6] [µM] | EC (25% of 0.1 nM E2 effect) ([7]; Homo sapiens, Ishikawa) [µM] | activation at 1 µM ([7]; Homo sapiens, Ishikawa) [%] | prevention of oxytosis of glutamate-challenged HT22 cells [8] | proliferation of MDA-MB-231 cells [12] | other results
1 | O=c1c(-c2ccc(O)cc2)coc2cc(O)cc(O)c12 [Compound 3, genistein] | 79 ± 6 | not different | 106±11 | ≥ 10 | 0.03 ± 0.01 | 110 ± 11 | unable to prevent oxytosis |  | reduction of LPS induction of TNFα mRNA expression ([1]; 3 μM, pre-treatment 24 h, LPS 100 ng/ml 1 h): 15%; suppression of LPS-stimulated TNFα mRNA expression ([1]; pre-incubated with 3 μM isoflavonoid prior to the stimulation): ineffective; inhibition of TNFα gene transcription in RAW 264.7 cells ([3]; pre-incubation with low micromolar concentrations): 30–40%; viability of glutamate-treated HT22 cells (% of glutamate-free cells) ([4]; 5 mM glutamate 24 h, 1 nM estradiol or 1 μM compound): ≤ 40%; EC50 ([7]; Homo sapiens, Ishikawa, read-out: Induction of Alkaline Phosphatase Expression (Ishikawa cells) EC50E2): 50 ± 20 nM
2 | C[C@]12CC[C@@H]3c4ccc(O)cc4CC[C@H]3[C@@H]1CC[C@@H]2O [Estradiol, 17β-estradiol, reference compound] | 100 ± 19 | not different | 105±3 | ≥ 10 | 9.83 ± 0.44 | 100 ± 9 | unable to prevent oxytosis | not affected | induction of proliferation of MCF-7 cells ([2]; 0.1 nM estradiol, vs vehicle): 1.80 fold; suppression of TNFα mRNA expression and cytokine release after LPS ([3]; estrogen-free RAW 264.7 cells): unable to suppress; viability at 0.001 µM ([4]; Mus musculus, HT-22, 24 h, read-out: viability of glutamate-treated HT22 cells (% of glutamate-free cells)): ≤ 40%; Induction of luciferase gene transcription through ERβ, HEK:ERβ cells, Agonism at 1μΜ (% of 0.1nM E2) [9]: 100 ± 12 % of 0.1nM E2; Differentiation of MC3T3-E1 cells, Alizarin red staining (%) [10]: 134±7 %; Differentiation of MC3T3-E1 cells, AlkP expression (%) [11]: 118±2 %; induction of AlkP expression ([7]; 0.1 nM estradiol, vs vehicle): 3.68 fold; IC50 ([8]; read-out: IC50, ER-dependent protection of glutamate-challenged HT22 cells from oxytosis): > 800 nM
3 | C[C@]12CC[C@@H]3c4ccc(O)cc4C[C@@H](CCCCCCCCC[S+]([O-])CCCC(F)(F)C(F)(F)F)[C@H]3[C@@H]1CC[C@@H]2O (stereo partly shown) [ICI182,780, reference compound] |  |  |  |  |  |  |  | not affected | suppression of isoflavonoid cell proliferation effects [2, 14]: fully suppressed; suppression of isoflavonoid-induced AlkP expression [7, 14]: fully suppressed
